# Reference: patent US9713598B2, “Treatment of insulin resistance associated with prolonged physical inactivity” (ABBOTT LABORATORIES, priority 2013, dated 2017)
# Several values for one entry are separate records, joined by “and”; a condition that tells them apart may be missing. Equal entries are not always repeated.
# Experiments:
# Format in all cases: in vivo
# Leptin = assay: 10-day bed rest study in healthy elderly subjects: circulating Leptin (RBM Human Discovery map, serum)
# Excerpt: (§1) The following inclusion criteria were verified at screening: male or female ≧60 to ≦79 years of age; body mass index (BMI) ≧20 but ≦35; ambulatory with a Short Performance Physical Battery (SPPB) score of ≧9 (fully functional with no mobility limitations); compliance with prescribed activity level. Exclusion criteria ruled out subjects who had undergone recent major surgery, had active malignancy (exception basal or squamous cell skin carcinoma or carcinoma in situ of the uterine cervix); history of Deep Vein Thrombosis (DVT) or other hypercoagulation disorders; refractory anemia; history of diabetes or fasting blood glucose value >126 mg/dL; presence of partial or full artificial limb; kidney disease or serum creatinine >1.4 mg/dL; evidence of cardiovascular disease assessed during resting or exercise EKG; untreated hypothyroidism; liver disease; chronic or acute GI disease; uncontrolled severe diarrhea, nausea or vomiting; were actively pursuing weight loss; were enrolled in other clinical trials; could not refrain from smoking over the bed rest study period or could not discontinue anticoagulant therapy over bed rest period. Potential subjects were also excluded if they were taking any medications known to affect protein metabolism (e.g., progestational agents, steroids, growth hormone, dronabinol, marijuana, HMB, free amino acid supplements, dietary supplements to aid weight loss).
# (§2) The 24 healthy subjects initially involved in the study were randomized into two groups. Subjects in the treatment group received two β-hydroxy-β-methylbutyrate (HMB) sachets containing 1.5 grams Ca-HMB (TSI, Salt Lake City, Utah), 4 grams maltodextrin and 200 mg Calcium with additional sweetener and flavoring groups. Subjects in the control group received two control sachets that were identical to the HMB sachets with the exclusion Ca-HMB. This study was a double-blinded study. Neither the investigators nor the subjects were informed of the identity of any of the study products during the clinical portion of the study. Subjects were instructed to consume twice daily by mixing each sachet into a non-caloric, non-caffeinated, non-carbonated, non-milk-based beverage of their choice. Treatment with HMB or Control was initiated 5 days prior to bed rest and was continued until the end of the rehabilitation period.
# For diet stabilization over the pre-bed rest and bed rest period, subjects were fed a metabolically controlled diet providing the RDA for protein intake (0.8 g protein/kg body weight per day). […]
# (§3) After a diet stabilization of 5 days (ambulatory period), subjects remained in bed continuously for 10 days. […] Subjects were constantly monitored by nursing staff and received a daily physical examination by the study physician. […]
# C-peptide = assay: 10-day bed rest study in healthy elderly subjects: circulating C-peptide (RBM Human Discovery map, serum)
# Excerpt: as §1, §2
# (§4) For diet stabilization over the pre-bed rest and bed rest period, subjects were fed a metabolically controlled diet providing the RDA for protein intake (0.8 g protein/kg body weight per day). Total calorie needs were estimated using the Harris-Benedict equation for resting energy expenditure according to the following equation: For women=[655+(9.56×body weight in kg)+(1.85×height in cm)−(4.68×age in years)]×AF, or, For men=[66+(13.7×body weight in kg)+(5×height in cm)−([…]]×AF, where AF=activity factor of 1.6 for the ambulatory and 1.35 for the bed rest periods. Given the total calorie and protein intakes, the remainder of the diet was manipulated to keep the non-protein calories at about 60% from carbohydrates and 40% from fat. Water was provided ad libitum.
# as §3, with “days. While confined to bed rest, subjects were allowed to use the bedside commode for urination or were taken in a wheelchair for toileting.” for “days.”
# [1] = test system: Insulin-like Growth Factor-Binding Protein 2 (IGFBP-2); assay: 10-day bed rest study in healthy elderly subjects: circulating IGFBP-2 (RBM Human Discovery map, serum)
# Excerpt: as §1, §2, §4
# as §3, with “days. While confined to bed rest, subjects were allowed to use the bedside commode for urination or were taken in a wheelchair for toileting.” for “days.”
# [2] = HMB Treatment (n = 10), end of 10 days of bed rest
# [3] = HMB Treatment (n = 10), two sachets of 1.5 g Ca-HMB daily, started 5 days prior to bed rest, fasted blood, Day 1 of bed rest
structure (smiles),measurement,setting,value
"CC(C)(O)CC(=O)O [HMB, β-hydroxy-β-methylbutyric acid]","Leptin, Post-bed rest Mean",Leptin; [2],19.31 ng/mL
same,"Leptin, Change","Leptin; HMB Treatment (n = 10), pre- to post-bed rest, 10 days, control change 5.06 ± 1.88",4.11 ng/mL and 4.11 ± 1.89 ng/mL
same,"Leptin, Pre-bed rest Mean",Leptin; [3],15.20 ng/mL
same,effect on bed-rest change in blood levels of Leptin versus untreated control subjects,"Leptin; prolonged bed rest, 10 days",reduces or attenuates the increase in blood levels of Leptin
same,percent increase in blood levels of C-peptide,"C-peptide; 10 HMB treated subjects, after 10 days of bed rest, control 43.0%",29.59%
same,"C-peptide, Post-bed rest Mean",C-peptide; [2],1.69 ng/mL
same,"C-peptide, Change","C-peptide; HMB Treatment (n = 10), pre- to post-bed rest, 10 days, control change 0.54 ± 0.22",0.28 ng/mL and 0.28 ± 0.08 ng/mL
same,"C-peptide, Pre-bed rest Mean",C-peptide; [3],1.41 ng/mL
same,effect on bed-rest change in blood levels of C-peptide versus untreated control subjects,"C-peptide; prolonged bed rest, 10 days",reduces or attenuates the increase in blood levels of C-peptide
same,percent change in blood levels of IGFBP-2,"[1]; 10 HMB treated subjects, after 10 days of bed rest, control −24.56%",−15.63%
same,"IGFBP-2, Post-bed rest Mean",[1]; [2],106.97 ng/mL
same,"IGFBP-2, Change","[1]; HMB Treatment (n = 10), pre- to post-bed rest, 10 days, control change −30.54 ± 13.64",-20.89 ng/mL and -20.89 ± 6.84 ng/mL
same,"IGFBP-2, Pre-bed rest Mean",[1]; [3],127.86 ng/mL
same,effect on bed-rest change in blood levels of IGFBP-2 versus control subjects,"[1]; prolonged bed rest, 10 days",reduces or attenuates the decrease in blood levels of IGFBP-2
